The source of these data is patent publication US10059689B2, “Substituted heteroaryl compounds and methods of use” (Sunshine Lake Pharma Co., Ltd., priority 2014, dated 2018).

Assay [1] deals with T1, FLT3 (h) (Homo sapiens, UniProt P36888).
T1 construct: purchased Millipore UK Ltd (contract assay service)
T1 sequence (P36888 27-993): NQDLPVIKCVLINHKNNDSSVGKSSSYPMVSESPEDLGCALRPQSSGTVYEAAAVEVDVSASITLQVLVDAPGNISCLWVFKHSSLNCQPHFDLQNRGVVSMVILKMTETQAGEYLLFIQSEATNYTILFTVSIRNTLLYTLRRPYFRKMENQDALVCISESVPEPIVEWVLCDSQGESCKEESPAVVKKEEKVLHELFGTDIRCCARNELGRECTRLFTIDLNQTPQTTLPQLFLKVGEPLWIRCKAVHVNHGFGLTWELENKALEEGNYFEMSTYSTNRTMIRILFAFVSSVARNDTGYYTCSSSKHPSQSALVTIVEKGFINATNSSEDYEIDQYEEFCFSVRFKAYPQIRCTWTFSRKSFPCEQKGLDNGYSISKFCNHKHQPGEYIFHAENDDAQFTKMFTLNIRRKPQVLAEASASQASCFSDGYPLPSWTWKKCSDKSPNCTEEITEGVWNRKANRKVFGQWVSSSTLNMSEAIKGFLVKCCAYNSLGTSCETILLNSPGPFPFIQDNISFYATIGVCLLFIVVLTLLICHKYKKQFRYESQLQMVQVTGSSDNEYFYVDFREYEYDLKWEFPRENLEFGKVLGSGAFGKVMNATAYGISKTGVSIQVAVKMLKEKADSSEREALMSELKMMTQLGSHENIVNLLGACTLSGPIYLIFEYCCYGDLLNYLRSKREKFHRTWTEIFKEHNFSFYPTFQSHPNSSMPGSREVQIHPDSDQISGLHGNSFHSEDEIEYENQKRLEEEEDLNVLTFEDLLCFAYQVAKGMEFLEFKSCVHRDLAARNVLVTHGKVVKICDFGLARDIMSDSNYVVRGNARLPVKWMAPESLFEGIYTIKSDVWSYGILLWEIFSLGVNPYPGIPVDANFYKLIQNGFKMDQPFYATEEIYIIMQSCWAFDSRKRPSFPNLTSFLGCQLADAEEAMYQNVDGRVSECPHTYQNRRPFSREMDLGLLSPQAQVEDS
As to the kind of experiment: FLT3 (h) kinase assay. The class given is biochemical. As to the method:
Kinase assays can be performed by measurement of incorporation of γ-33P ATP into immobilized myelin basic protein (MBP). High binding white 384 well plates (Greiner) are coated with MBP (Sigma #M-1891) by incubation of 60 μL/well of 20 μg/mL MBP in Tris-buffered saline (TBS; 50 mM Tris pH 8.0, 138 mM NaCl, 2.7 mM KCl) for 24 h at 4° C. Plates are washed 3× with 100 μL TBS. Kinase reactions are carried out in a total volume of 34 μL in kinase buffer (according to the need to make, for example, 5 mM Hepes pH 7.6, 15 mM NaCl, 0.01% bovine gamma globulin (Sigma #I-5506), 10 mM MgCl2, 1 mM DTT, 0.02% TritonX-100). Compound dilutions are performed in DMSO and added to assay wells to a final DMSO concentration of 1%. Each data point is measured in duplicate, and at least two duplicate assays are performed for each individual compound determination. Enzyme is added to final concentrations of 10 nM or 20 nM, for example. A mixture of unlabeled ATP and γ-33P ATP is added to start the reaction (2×10^6 cpm of γ-33P ATP per well (3000 Ci/mmole) and 10 μM unlabeled ATP, typically. The reactions are carried out for 1 h at room temperature with shaking Plates are washed 7× with TBS, followed by the addition of 50 μL/well scintillation fluid (Wallac). Plates are read using a Wallac Trilux counter. This is only one format of such assays; various other formats are possible, as known to one skilled in the art.
(§1) The above assay procedure can be used to determine the IC50 for inhibition and/or the inhibition constant, Ki. The IC50 is defined as the concentration of compound required to reduce the enzyme activity by 50% under the condition of the assay. The IC50 value is estimated by preparing a 10 point curve using a ½ log dilution series (for example, a typical curve may be prepared using the following compound concentrations: 3 μM, 1 μM, 0.3 μM, 0.1 μM, 0.03 μM, 0.01 μM, 0.003 μM, 0.001 μM, 0.0003 μM and 0 μM).
FLT3 (h) is incubated with 8 mM MOPS pH 7.0, 0.2 mM EDTA, 50 μM EAIYAAPFAKKK, 10 mM MgAcetate and [γ-^33P-ATP] (specific activity approx. 500 cpm/pmol, concentration as required). The reaction is initiated by the addition of the MgATP mix. After incubation for 40 minutes at room temperature, the reaction is stopped by the addition of 3% phosphoric acid solution. 10 μL of the reaction is then spotted onto a P30 filtermat and washed three times for 5 minutes in 75 mM phosphoric acid and once in methanol prior to drying and scintillation counting.
(§2) The kinase assays described herein were performed at Millipore UK Ltd, Dundee Technology Park, Dundee DD2 1SW, UK.

Assay [2] addresses T2, JAK1 (h) (Homo sapiens, UniProt P23458).
T2 construct: purchased Millipore UK Ltd (contract assay service)
As to the kind of experiment: JAK1 (h) kinase assay. The class given is biochemical. The protocol: as §1
JAK1 (h) is incubated with 20 mM Tris/HCl pH 7.5, 0.2 mM EDTA, 500 μM GEEPLYWSFPAKKK, 10 mM MgAcetate and [γ-^33P-ATP] (specific activity approx. 500 cpm/pmol, concentration as required). The reaction is initiated by the addition of the MgATP mix. After incubation for 40 minutes at room temperature, the reaction is stopped by the addition of 3% phosphoric acid solution. 10 μL of the reaction is then spotted onto a P30 filtermat and washed three times for 5 minutes in 75 mM phosphoric acid and once in methanol prior to drying and scintillation counting.
as §2

T2 sequence (P23458 whole entry): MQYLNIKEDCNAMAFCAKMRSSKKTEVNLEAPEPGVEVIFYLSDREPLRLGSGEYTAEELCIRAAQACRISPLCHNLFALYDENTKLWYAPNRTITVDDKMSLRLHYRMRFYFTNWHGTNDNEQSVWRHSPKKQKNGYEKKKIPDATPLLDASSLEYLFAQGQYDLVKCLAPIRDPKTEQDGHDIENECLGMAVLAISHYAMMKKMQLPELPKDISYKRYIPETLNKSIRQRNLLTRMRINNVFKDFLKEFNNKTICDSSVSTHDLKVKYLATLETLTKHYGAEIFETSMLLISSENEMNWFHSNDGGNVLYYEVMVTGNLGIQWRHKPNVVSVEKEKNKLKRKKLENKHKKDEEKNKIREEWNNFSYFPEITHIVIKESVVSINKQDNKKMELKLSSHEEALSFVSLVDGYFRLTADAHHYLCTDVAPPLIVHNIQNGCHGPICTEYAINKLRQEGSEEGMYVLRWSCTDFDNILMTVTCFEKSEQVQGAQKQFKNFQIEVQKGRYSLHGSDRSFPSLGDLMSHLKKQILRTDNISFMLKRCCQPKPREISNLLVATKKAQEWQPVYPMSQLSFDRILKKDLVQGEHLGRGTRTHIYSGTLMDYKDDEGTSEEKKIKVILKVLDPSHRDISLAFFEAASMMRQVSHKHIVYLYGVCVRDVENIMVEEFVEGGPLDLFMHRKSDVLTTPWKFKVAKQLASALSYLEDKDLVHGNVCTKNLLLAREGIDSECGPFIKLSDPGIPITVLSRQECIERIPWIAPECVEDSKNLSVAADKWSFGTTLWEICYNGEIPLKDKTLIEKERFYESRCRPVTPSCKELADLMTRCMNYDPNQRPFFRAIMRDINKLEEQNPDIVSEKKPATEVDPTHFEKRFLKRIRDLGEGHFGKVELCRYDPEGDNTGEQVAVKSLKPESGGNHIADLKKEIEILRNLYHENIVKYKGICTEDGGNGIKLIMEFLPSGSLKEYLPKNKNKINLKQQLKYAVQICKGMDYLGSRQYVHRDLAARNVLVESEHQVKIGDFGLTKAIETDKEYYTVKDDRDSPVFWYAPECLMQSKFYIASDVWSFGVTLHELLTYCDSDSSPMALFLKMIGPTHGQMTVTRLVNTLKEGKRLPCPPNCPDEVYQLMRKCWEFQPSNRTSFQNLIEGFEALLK

In general, IC50 refers to the concentration needed to halve the response being measured. Lower therefore signals greater potency. Take `Cc1c2ccc(Nc3ncc(Cl)c(NC4CCN(c5ccc(C#N)cn5)CC4)n3)cc2nn1C` [Ex. 4]: the IC50 is 151 nM in assay [1] and 0.3 nM in assay [2].

`Cc1c2ccc(Nc3ncc(Cl)c(NC4CCN(c5ccc(C#N)nn5)CC4)n3)cc2nn1C` [Ex. 12, 6-(4-((5-chloro-2-((2,3-dimethyl-2H-indazol-6-yl)amino)pyrimidin-4-yl)amino)piperidin-1-yl)pyridazine-3-carbonitrile]: the IC50 was 4 nM in assay [1] and less than 0.3 nM in assay [2].

For `Cc1cc(Nc2ncc(Cl)c(NC3CCN(c4ccc(C#N)nn4)CC3)n2)nn1C` [Ex. 13, 6-(4-((5-chloro-2-((1,5-dimethyl-1H-pyrazol-3-yl)amino)pyrimidin-4-yl)amino)piperidin-1-yl)pyridazine-3-carbonitrile], the IC50 in assay [1] was found to be 48 nM; in assay [2], 0.4 nM.

`Cn1cc(Nc2ncc(Cl)c(NC3CCN(c4ccc(C#N)cn4)CC3)n2)cn1` [Ex. 1, 6-(4-((5-chloro-2-((1-methyl-1H-pyrazol-4-yl)amino)pyrimidin-4-yl)amino)piperidin-1-yl)nicotinonitrile]: the IC50 in assay [1] was 6 nM; in assay [2], less than 0.3 nM.

`Cc1nn(C)cc1Nc1ncc(Cl)c(NC2CCN(c3ccc(C#N)nn3)CC2)n1` [Ex. 11, 6-(4-((5-chloro-2-((1,3-dimethyl-1H-pyrazol-4-yl)amino)pyrimidin-4-yl)amino)piperidin-1-yl)pyridazine-3-carbonitrile]: the IC50 in assay [1] is 21 nM; in assay [2] it was 0.4 nM.

Consider `CN(c1nc(Nc2cnn(C)c2)ncc1Cl)C1CCN(c2ccc(C#N)cn2)CC1` [Ex. 5, 6-(4-((5-chloro-2-((1-methyl-1H-pyrazol-4-yl)amino)pyrimidin-4-yl) (methyl)amino)piperidin-1-yl)nicotinonitrile], for which the IC50 was determined as 42 nM in assay [1] and 0.8 nM in assay [2].

As for `Cc1nn(C)cc1Nc1ncc(Cl)c(NC2CCN(c3ccc(C#N)cn3)CC2)n1` [Ex. 10, 6-(4-((5-chloro-2-((1,3-dimethyl-1H-pyrazol-4-yl)amino)pyrimidin-4-yl)amino)piperidin-1-yl)nicotinonitrile], the IC50 was 9 nM in assay [1] and less than 0.3 nM in assay [2].
